Laboratory results taken from publication PMC9202147, “In vitro anti-HIV and cytotoxic effects of pure compounds isolated from Croton macrostachyus Hochst. Ex Delile” (BMC Complementary Medicine and Therapies, 2022).
Values after ≈ are worked out from the molar mass of the structure shown. Read-outs that look alike come from different tables or passages of the source.

Columns and labels:
[1] = tested on: HIV-1IIIB virus; experiment: Anti-HIV activity: inhibition of HIV-1-induced cytopathic effect in MT-4 cells, MTT colorimetric assay; format: cell-based; conditions: for SI (selective index): ratio of CC50 to EC50, MT-4 cells; for Emax: read-out: EmaxAV (maximum antiviral effect %, inhibition of virus-induced CPE)
Method: The effects of the test compounds in preventing cytopathic effects that occur because of HIV-1 replication were evaluated by MTT colorimetric assay. MT-4 cells suspended at 1 X 10^8 cells/ml were infected with 640 μL of HIV-1IIIB virus at 1.26 X10^8 TCID50/ml. After infection, 200 μl HIV-infected MT-4 cells (1 X10^5 cells/well) in growth media were added to each well. The plates were preincubated for 24 h at 37 °C to allow stabilization. Then, 50 μL of the test compounds (at a concentration of 4 mg/ml) were added to the first column of the well. With a multichannel pipette, 50 μL was transferred (in triplicate) from the wells labeled 1 to wells labeled 2. Such transfers were continued (serial dilution), moving from left to right, changing tips prior to mixing contents of the next column of wells. Finally, 50 μL was discarded from the wells in column 12. Different concentrations ([…]) of test compounds were prepared through serial dilution. Each dilution was tested in triplicates. The microtiter plates were incubated at 37 °C in a 5% CO2 incubator for 5 days. […] After 5 days of incubation, cell viability was determined by the MTT assay described. All compounds were assayed in triplicate.

[2] = tested on: MT-4 cells; experiment: in vitro; conditions: 5 days, MTT, mean ± S.E.M (n = 3); for MNTC (maximum nontoxic concentration): concentration with cell viability above 80% (CC20)
Method: (§1) A cytotoxicity test was conducted to evaluate the safety of the plant extracts by measuring cell death caused by the plant extracts. The assay was conducted using an MTT colorimetric assay. The MTT assay was based on the reduction of the yellow-colored tetrazolium salt MTT 3-(4,5-dimethylthiazol-2-yl)-2,5-diphenyltetrazolium bromide) by NAD(P)H-dependent cellular oxidoreductase enzymes to an insoluble dark-blue colored formazan that can be measured spectrophotometrically. Formazan production indicates the number of viable cells; therefore, an increase or decrease in cellular viability results in a change in the amount of formazan formed, which indicates the degree of cellular cytotoxicity (CC50) caused by the plant extract. MTT (3-(4,5-dimethylthiazol-2-yl)-2,5-diphenyl tetrazolium bromide) was dissolved in PBS to obtain a final concentration of 5 mg/ml and filtered to sterilize and remove insoluble residue. The assay was carried out in 96-well, flat-bottomed microtiter plates. To each well, 200 μl of MT-4 cells (1 × 10^5 cells) in growth media was added. The plates were preincubated for 24 h at 37 °C to allow stabilization. Then, 50 μL of the test compounds (at a concentration of 4 mg/ml) were added to the first column of the well. With a multichannel pipette, 50 μL was transferred (in triplicate) from the wells labeled 1 to wells labeled 2, and such transfers were continued (serial dilution), moving from left to right, changing tips prior to mixing contents of the next column of wells. Finally, 50 μL was discarded from the wells in column 12. […] Each dilution was tested in triplicates. The negative control (NC) wells contained 50 μl of MT-4 cells in 0.5% DMSO [52]. […] A 96-well microtiter plate containing the test compounds and positive and negative controls was incubated at 37 °C in a humidified atmosphere of 5% CO2 for 5 days. After incubation, 20 μl of MTT reagent (5 mg/ml MTT in phosphate-buffered saline) was added to each test well and control well. The plate was further incubated at 37 °C in a CO2 incubator for 4 hours. After 4 hours of incubation, 100 μl of DMSO was added to dissolve the dark-blue formazan crystals from surviving cells. After the formazan crystals were dissolved completely, the resulting optical density (OD) readings were measured relative to the controls on an ELISA plate reader at 570 nm with a reference wavelength of 620 nm. For each extract and pure compound tested, 3 triplicate determinations were performed. […] The concentration that determined cell viability above 80% (CC20) was chosen as the maximum non-toxic concentration (MNTC).

[3] = in vitro; conditions: human, MT-4 cells
Method: as §1

[4] = tested on: HIV; parameters: method as in ref 61 (Chaniad et al); conditions: ref 61 (Chaniad et al); read-out: IC50 against HIV; cited from earlier work
[5] = biological target: HIV-1 RT-associated RNase H function; parameters: method as in ref 62 (Esposito et al); conditions: ref 62 (Esposito et al); cited from earlier work
[6] = HIV-1IIIB-infected MT-4 cells, 5 days, MTT, mean ± S.E.M (n = 3)
[7] = Human immunodeficiency virus 1, MT4, 120 h, read-out: IC50 (50% antiviral effect concentration), HIV-1IIIB-infected MT-4 cells, 5 days, MTT, mean ± S.E.M (n = 3)
[8] = Human immunodeficiency virus 1, MT4, 120 h, HIV-1IIIB-infected MT-4 cells, 5 days, MTT, mean ± S.E.M (n = 3)
[9] = CC50 (50% cytotoxic concentration), 5 days, MTT, mean ± S.E.M (n = 3)
[10] = Human immunodeficiency virus 1, MT4, 120 h, read-out: IC50 (50% antiviral effect concentration)

SMILES	EmaxAV (maximum antiviral effect %, inhibition of virus-induced CPE) [1, 6] [%]	IC50 [1, 7] [µg/mL]	SI (selective index) [1]	MNTC (maximum nontoxic concentration) [2] [µg/mL]	CC50 (50% cytotoxic concentration) [2] [µg/mL]	EmaxC (maximum cytotoxic effect %) [2] [%]	Emax [1, 8] [%]	CC50 at 5 days [3] [µg/mL]	IC50 ([1]; Human immunodeficiency virus 1, MT4, as stated in abstract/conclusions, read-out: anti-HIV-1 inhibition IC50) [nM]	CC50 at 5 days [3, 9] [µg/mL]	IC50 ([1]; Human immunodeficiency virus 1, MT4, read-out: anti-HIV-1 inhibition IC50) [nM]	IC50 ([1]; Human immunodeficiency virus 1, MT4, as stated in abstract, read-out: anti-HIV-1 inhibition IC50) [µg/mL]	IC50 [4] [nM]	IC50, HIV-1 RT-associated RNase H function [5] [nM]	Emax ([1]; Human immunodeficiency virus 1, MT4, 120 h) [%]	IC50 [1, 10] [µg/mL]
Nc1nc(NC2CC2)c2ncn([C@H]3C=C[C@@H](CO)C3)c2n1 [ABC, Abacavir, reference compound]	58.67 ± 0.43	0.05 ± 0.031	5.0	0.18 ± 0.03	0.26 ± 0.00 (≈ 0.908 µM)	17.83 ± 0.57	–	–	–	–	–	–	–	–	–	–
Cc1cn([C@H]2C[C@H](N=[N+]=[N-])[C@@H](CO)O2)c(=O)[nH]c1=O [AZT, Zidovudine, reference compound]	83.5 ± 0.57	–	–	–	–	–	–	–	–	–	–	–	–	–	–	–
COc1ccccc1COC(=O)c1ccccc1 [Compound 1, 2-methoxy benzyl benzoate]	–	0.25 ± 0.02	0.0073	–	–	39.1 ± 2.22	53.2 ± 3.35	0.001 (≈ 0.00413 µM)	–	–	–	–	–	–	–	–
C=C(C)[C@@H]1CC[C@]2(C)CC[C@]3(C)[C@H](CC[C@@H]4[C@@]5(C)CCC(=O)C(C)(C)[C@@H]5CC[C@]43C)[C@@H]12 [Compound 2, lupenone]	–	0.002 ± 0.001	14,084.0	14.17 ± 0.94	28.83 ± 0.54 (≈ 67.9 µM)	38.53 ± 0.69	64.74 ± 0.52	–	4.7	32.5 ± 0.7 (≈ 76.4 µM)	–	–	–	–	–	–
C=C(C)[C@@H]1CC[C@]2(CO)CC[C@]3(C)[C@H](CC[C@@H]4[C@@]5(C)CC[C@H](O)C(C)(C)[C@@H]5CC[C@]43C)[C@@H]12 [Compound 4, betulin]	–	0.002 ± 0.04	15,551.2	16.54 ± 0.35	–	55.13 ± 0.15	76	–	–	31.7 ± 0.55 (≈ 71.7 µM)	4.5	4.5	17700 ± 600	–	–	–
C=C(C)[C@@H]1CC[C@]2(C)CC[C@]3(C)[C@H](CC[C@@H]4[C@@]5(C)CC[C@H](O)C(C)(C)[C@@H]5CC[C@]43C)[C@@H]12 [Compound 5, lupeol]	–	0.047 ± 0.02	3048.2	75.75 ± 0.74	–	70.28 ± 0.75	77.01 ± 0.38	–	–	141.8 ± 0.7 (≈ 332 µM)	–	–	–	11600	–	–
CC[C@H](/C=C/[C@@H](C)[C@H]1CC[C@H]2[C@@H]3CC=C4C[C@@H](O)CC[C@]4(C)[C@H]3CC[C@]12C)C(C)C [Compound 7, stigmasterol]	–	–	86.5	4.70 ± 3.43	–	43.71 ± 2.02	–	–	–	12.4 ± 10.9 (≈ 30 µM)	–	–	–	–	76.8 ± 23.2	0.14 ± 0.04
Cc1ccnc2c1NC(=O)c1cccnc1N2C1CC1 [NVP, Nevirapine, reference compound]	72.53 ± 0.47	0.24 ± 0.09	3.5	0.57 ± 0.0	0.82 ± 0.0 (≈ 3.08 µM)	39.13 ± 0.65	–	–	–	–	–	–	–	–	–	–
C[C@H](Cn1cnc2c(N)ncnc21)OCP(=O)(O)O [TDF, Tenofovir, reference compound]	80.55 ± 0.46	–	–	4.92 ± 0.71	6.73 ± 0.24 (≈ 23.4 µM)	13.17 ± 0.43	–	–	–	–	–	–	–	–	–	0.04 ± 0.01
